According to patent US11091447B2, “UBE2K modulators and methods for their use” (Berg LLC, priority 2020, dated 2021):

Each molecule was assayed on MIA PaCa-2 cells (assay: Cellular viability assay (Cell Titer Fluor)). Settings: Homo sapiens, 72 hours incubation.
Format: cell-based
Method: Cell viability were performed using the Cell Titer Fluor™ Assays (Promega G6080). MIA PaCa-2 cells are grown in DMEM media with 10% FBS, 1% Pen/Strep/Amphotericin B. Cells are trypsinized and counted using the Nexcelom cellometer. 5,000 cells/100 μl are plated per well in Greiner black/clear 96-well plates. Cells should be within 10 passages of stock vial for use in workflow. Three distinct lineages of these cells are cultured in parallel for multiple passages and 5 full plates of each lineage are seeded for one run. Small molecule compounds are provided as 100 mM stock solutions in DMSO. Dilution series plates are prepared using 1:3 dilution to achieve a 7 point concentration on a half log scale. After addition of compounds, cells are incubated 37° C., 5% CO2 for 72 hours.
For each test compound condition, triplicate technical replicates are used. For each reference compound, duplicate technical replicates are used. At the end of the 72-hour incubation, spent media is discarded. Then, 100 μl of GF-AFC diluted in DMEM (serum and phenol red-free) is added at 1:2000 concentration (5 μl/10 ml). Cells are incubated with reaction buffer for 1 h at 37° C. Fluorescence is then read on the plate reader with excitation wavelength of 390 nm and emission wavelength of 505 nm. All raw data are analyzed on Microsoft Excel 2010 and normalized to the DMSO vehicle control. Relative results are copied into GraphPad Prism for non-linear regression analysis and determination of IC50 and other dose curve parameters (min, max, Hill slope, etc.) using the log (inhibitor) vs. response equation. Values are as follows: A represents an IC50 of <[…], B represents an IC50 of 1 mM to 10 mM, C represents an IC50 of >10 mM.
For `COc1ccc(F)cc1-c1nc(CNC(=O)c2ccccc2OC(F)(F)F)n[nH]1` [Compound 127, N-((5-(5-fluoro-2-methoxyphenyl)-1H-1,2,4-triazol-3-yl)methyl)-2-(trifluoromethoxy)benzamide], the IC50 was < 1000 nM.

Same assay, conditions: Homo sapiens, MIA PaCa-2, 72 h, 72 hours incubation
`O=C(NCc1cc(-c2cccs2)[nH]n1)c1cc(C(F)(F)F)ccc1N1CCCC(F)(F)C1` [Compound 78] was tested, and the IC50 was < 1000 nM. `O=C(NCc1cc(-c2cccs2)[nH]n1)c1cccc(C(F)(F)F)c1N1CCCCC1` [Compound 79] gave an IC50 of 1000 to 10000 nM. `O=C(NCc1cc(-c2cccs2)[nH]n1)c1cc(F)ccc1N1CCCCC1` [Compound 80, 5-fluoro-2-(piperidin-1-yl)-N-((5-(thiophen-2-yl)-1H-pyrazol-3-yl)methyl) benzamide] was tested, and the IC50 was < 1000 nM. `O=C(NCc1cc(-c2cccs2)[nH]n1)c1cc(O)ccc1N1CCCC(F)(F)C1` [Compound 81] gave an IC50 of 1000 to 10000 nM. In the case of `O=C(NCc1cc(-c2cccs2)[nH]n1)c1cccc(C(F)(F)F)c1N1CCCC1` [Compound 82], the IC50 is reported as 1000 to 10000 nM. `O=C(NCc1cc(-c2cccs2)[nH]n1)c1cc(C(F)(F)F)ccc1N1CCCC1` [Compound 83] showed an IC50 of 1000 to 10000 nM. For `N#Cc1ccc(N2CCCC2)c(C(=O)NCc2cc(-c3cccs3)[nH]n2)c1` [Compound 84], the IC50 was 1000 to 10000 nM. For `N#Cc1ccc(N2CCCC(F)(F)C2)c(C(=O)NCc2cc(-c3cccs3)[nH]n2)c1` [Compound 85], the IC50 was < 1000 nM. For `O=C(NCc1n[nH]c(-c2cccs2)n1)c1nccnc1N1CC(F)(F)C1` [Compound 86], the IC50 was > 10000 nM. For `O=C(NCc1n[nH]c(-c2cccs2)n1)c1nccnc1N1CCC(F)(F)C1` [Compound 87, 3-(3,3-difluoropyrrolidin-1-yl)-N-((5-(thiophen-2-yl)-1H-1,2,4-triazol-3-yl)methyl) pyrazine-2-carboxamide], the IC50 was > 10000 nM. In the case of `O=C(NCc1cc(-c2cccs2)[nH]n1)c1cccnc1N1CC(F)(F)C1` [Compound 88], the IC50 is reported as > 10000 nM. For `O=C(NCc1n[nH]c(-c2cccs2)n1)c1nccnc1N1CCC(F)(F)CC1` [Compound 89], the IC50 was > 10000 nM. `O=C(NCc1n[nH]c(-c2cccs2)n1)c1nccnc1N1CCCC(F)(F)C1` [Compound 90] was tested, and the IC50 was > 10000 nM. In the case of `O=C(NCc1cc(-c2cc(F)ccc2O)[nH]n1)c1cc(F)ccc1N1CCCCC1` [Compound 91], the IC50 is reported as < 1000 nM. In the case of `CCOc1ccc(F)cc1-c1cc(CNC(=O)c2cc(F)ccc2N2CCCC2)n[nH]1` [Compound 92], the IC50 is reported as < 1000 nM. With `CC(C)Oc1ccc(F)cc1-c1cc(CNC(=O)c2cc(F)ccc2N2CCCCC2)n[nH]1` [Compound 93] the IC50 was < 1000 nM. In the case of `O=C(NCc1cc(-c2cccs2)[nH]n1)c1cc(F)ccc1N1CCCC1` [Compound 94], the IC50 is reported as < 1000 nM. With `Cc1ccc(N2CCCC(F)(F)C2)c(C(=O)NCc2cc(-c3cccs3)[nH]n2)c1` [Compound 96] the IC50 was < 1000 nM. `Cc1cccc(C(=O)NCc2cc(-c3cccs3)[nH]n2)c1N1CCC(F)(F)C1` [Compound 97] was tested, and the IC50 was 1000 to 10000 nM. With `CC(C)Oc1ccc(F)cc1-c1cc(CNC(=O)c2cc(F)ccc2N2CCCC2)n[nH]1` [Compound 98] the IC50 was < 1000 nM. In the case of `CCOc1ccc(F)cc1-c1cc(CNC(=O)c2cc(F)ccc2N2CCCCC2)n[nH]1` [Compound 99], the IC50 is reported as < 1000 nM. For `COc1ccccc1-c1cc(CNC(=O)c2cc(F)ccc2N2CCCCC2)n[nH]1` [Compound 100], the IC50 was < 1000 nM. In the case of `O=C(NCc1cc(-c2ccccc2O)[nH]n1)c1cc(F)ccc1N1CCCCC1` [Compound 101], the IC50 is reported as < 1000 nM. In the case of `COc1ccccc1-c1cc(CNC(=O)c2ccccc2N2CCCCC2)n[nH]1` [Compound 102, N-((5-(2-methoxyphenyl)-1H-pyrazol-3-yl)methyl)-2-(piperidin-1-yl) benzamide], the IC50 is reported as < 1000 nM. `O=C(NCc1cc(-c2cccs2)[nH]n1)c1ccccc1N1CCCCCC1` [Compound 103] was tested, and the IC50 was < 1000 nM. For `COc1ccccc1-c1cc(CNC(=O)c2cc(F)ccc2N2CCCC2)n[nH]1` [Compound 104], the IC50 was < 1000 nM. In the case of `COc1ccccc1-c1cc(CNC(=O)c2ccccc2N2CCCC2)n[nH]1` [Compound 105], the IC50 is reported as < 1000 nM. With `COc1ccc(F)cc1-c1cc(CNC(=O)c2cc(F)ccc2N2CCCCC2)n[nH]1` [Compound 110] the IC50 was < 1000 nM. For `COc1cccc(-c2cc(CNC(=O)c3ccccc3OC(F)(F)F)n[nH]2)c1OC` [Compound 114], the IC50 was > 10000 nM. With `CCCOc1ccc(F)cc1-c1cc(CNC(=O)c2ccccc2OC(F)(F)F)n[nH]1` [Compound 115] the IC50 was > 10000 nM. In the case of `CC(C)Oc1ccc(F)cc1-c1cc(CNC(=O)c2ccccc2OC(F)(F)F)n[nH]1` [Compound 116], the IC50 is reported as > 10000 nM. `COc1ccc(-c2cc(CNC(=O)c3ccccc3OC(F)(F)F)n[nH]2)c(OC)c1` [Compound 117] was tested, and the IC50 was > 10000 nM. `COc1ccccc1-c1nc(C2(NC(=O)c3ccccc3OC(F)F)CC2)n[nH]1` [Compound 118, 2-(difluoromethoxy)-N-(1-(5-(2-methoxyphenyl)-1H-1,2,4-triazol-3-yl)cyclopropyl) benzamide] was tested, and the IC50 was 1000 to 10000 nM. For `COc1ccc(F)cc1-c1nc(CNC(=O)c2ccc3c(c2)OC(F)(F)O3)n[nH]1` [Compound 119], the IC50 was 1000 to 10000 nM. Molecule `COc1ccccc1-c1nc(CNC(=O)c2ccc3c(c2)OC(F)(F)O3)n[nH]1` [Compound 120] has an IC50 of 1000 to 10000 nM. In the case of `COc1ccccc1-c1cc(S(=O)(=O)NC(=O)c2ccccc2OC(F)F)n[nH]1` [Compound 121, 2-(difluoromethoxy)-N-((5-(2-methoxyphenyl)-1H-pyrazol-3-yl)sulfonyl) benzamide], the IC50 is reported as > 10000 nM. For `COc1ccccc1-c1cc(S(=O)(=O)NC(=O)c2ccccc2OC(F)(F)F)n[nH]1` [Compound 122, N-[[5-(2-methoxyphenyl)-1H-pyrazol-3-yl]sulfonyl]-2-(trifluoromethoxy)benzamide], the IC50 was > 10000 nM. `COc1ccccc1-c1nc(S(=O)(=O)NC(=O)c2ccccc2OC(F)(F)F)n[nH]1` [Compound 123, N-((5-(2-methoxyphenyl)-1H-1,2,4-triazol-3-yl)sulfonyl)-2-(trifluoromethoxy) benzamide] was tested, and the IC50 was 1000 to 10000 nM. With `COc1ccccc1-c1nc(S(=O)(=O)NC(=O)c2ccccc2OC(F)F)n[nH]1` [Compound 124, 2-(difluoromethoxy)-N-((5-(2-methoxyphenyl)-1H-1,2,4-triazol-3-yl)sulfonyl) benzamide] the IC50 was 1000 to 10000 nM. In the case of `COc1ccccc1-c1nc(CNC(=O)c2ccccc2OC(F)(F)F)n[nH]1` [Compound 125], the IC50 is reported as < 1000 nM. `COc1ccc(F)cc1-c1nc(CNC(=O)c2ccccc2OC(F)F)n[nH]1` [Compound 128] was tested, and the IC50 was < 1000 nM. In the case of `O=C(NCc1n[nH]c(-c2cc(F)ccc2O)n1)c1ccccc1OC(F)F` [Compound 129], the IC50 is reported as < 1000 nM. With `O=C(NCc1n[nH]c(-c2cc(F)ccc2O)n1)c1ccccc1OC(F)(F)F` [Compound 130] the IC50 was < 1000 nM. With `COc1ccccc1-c1nc(CNC(=O)c2cccc3c2OC(F)(F)O3)n[nH]1` [Compound 132] the IC50 was < 1000 nM. `COc1ccccc1-c1nc(CNC(=O)c2cc(F)ccc2OC(F)(F)F)n[nH]1` [Compound 134] was tested, and the IC50 was < 1000 nM. In the case of `COc1ccc(F)cc1-c1nc(CNC(=O)c2cccc(F)c2OC(F)F)n[nH]1` [Compound 135, 2-(difluoromethoxy)-3-fluoro-N-((5-(5-fluoro-2-methoxyphenyl)-1H-1,2,4-triazol-3-yl)methyl) benzamide], the IC50 is reported as < 1000 nM. In the case of `COc1ccccc1-c1nc(CNC(=O)c2cccc(F)c2OC(F)F)n[nH]1` [Compound 136, 2-(difluoromethoxy)-3-fluoro-N-((5-(2-methoxyphenyl)-1H-1,2,4-triazol-3-yl)methyl) benzamide], the IC50 is reported as < 1000 nM. With `COc1ccccc1-c1nc(CNC(=O)c2cc(F)ccc2OC(F)F)n[nH]1` [Compound 138, 2-(difluoromethoxy)-5-fluoro-N-((5-(2-methoxyphenyl)-1H-1,2,4-triazol-3-yl)methyl) benzamide] the IC50 was < 1000 nM. `COc1ccc(F)cc1-c1nc(CNC(=O)c2cc(C#N)ccc2OC(F)F)n[nH]1` [Compound 139] was tested, and the IC50 was < 1000 nM. `COc1ccccc1-c1nc(CNC(=O)c2cc(C#N)ccc2OC(F)F)n[nH]1` [Compound 140] was tested, and the IC50 was < 1000 nM. For `COc1ccc(F)cc1-c1nc(CNC(=O)c2cccnc2OC(F)F)n[nH]1` [Compound 143, 2-(difluoromethoxy)-N-((5-(5-fluoro-2-methoxyphenyl)-1H-1,2,4-triazol-3-yl)methyl) nicotinamide], the IC50 was < 1000 nM. `COc1ccccc1-c1nc(CNC(=O)c2cccnc2OC(F)F)n[nH]1` [Compound 144, 2-(difluoromethoxy)-N-((5-(2-methoxyphenyl)-1H-1,2,4-triazol-3-yl)methyl) nicotinamide] was tested, and the IC50 was < 1000 nM. `COc1ccc(F)cc1-c1nc(CNC(=O)c2cnccc2OC(F)F)n[nH]1` [Compound 147] showed an IC50 of 1000 to 10000 nM. `COc1ccccc1-c1nc(CNC(=O)c2cnccc2OC(F)F)n[nH]1` [Compound 148] gave an IC50 of 1000 to 10000 nM.
